Laboratory results: patent US20260363243A1 (priority 2022, published 2026)

System: cucumber downy mildew
Experiment: Activity in vivo for inhibiting cucumber downy mildew (potting method, greenhouse)
[1] = 0.02 mg/L, re-screening, Table 2
[2] = 0.078 mg/L, re-screening, Table 2
[3] = 0.312 mg/L, re-screening, Table 2
[4] = 1.25 mg/L, re-screening, Table 2

From the text: The test and investigation method refers to a SOP-SC-1098 cucumber downy mildew potting method in the fungicide section of Standard operation Specification for testing biological Activity of pesticides written by Kang Zhuo and Gu Baogen.

Row | SMILES | Control effect (1.25 mg/L, Table 1) | Control effect (5 mg/L, Table 1) | Control effect (20 mg/L, Table 1) | further results
1 | Cc1ccc(-c2c(Cl)nc(C#N)n2S(=O)(=O)N(C)C)cc1 [cyazofamid, reference compound] | – | – | – | Control effect [1]: E (0%≤E<45%); Control effect [2]: B (75%≤B<90%); Control effect [3]: A (90%≤A≤100%); Control effect [4]: A (90%≤A≤100%)
2 | CO/N=C/C(=O)N1CCC(c2nc(C3=NOC(c4c(F)cccc4F)C3)cs2)CC1 (centres unmarked) [Compound I-22] | A (90%≤A≤100%) | A (90%≤A≤100%) | A (90%≤A≤100%) | Control effect [2]: B (75%≤B<90%); Control effect [3]: B (75%≤B<90%); Control effect [4]: A (90%≤A≤100%)
3 | CCO/C(C)=C/C(=O)N1CCC(c2nc(C3=NOC(c4c(F)cccc4F)C3)cs2)CC1 (centres unmarked) [Compound I-30] | B (75%≤B<90%) | B (75%≤B<90%) | A (90%≤A≤100%) | –
4 | CCCCC(C(=O)N1CCC(c2nc(C3=NOC(c4c(F)cccc4F)C3)cs2)CC1)C(OC)OC (centres unmarked) [II-9] | D (45%≤D<60%) | B (75%≤B<90%) | A (90%≤A≤100%) | –
5 | CO/C=C(\C#N)C(=O)N1CCC(c2nc(C3=NOC(c4c(F)cccc4F)C3)cs2)CC1 (centres unmarked) [Compound I-6] | – | – | B (75%≤B<90%) | –
6 | CO/C=C(/C(=O)N1CCC(c2nc(C3=NOC(c4c(F)cccc4F)C3)cs2)CC1)C(C)C (centres unmarked) [Compound I-10] | A (90%≤A≤100%) | A (90%≤A≤100%) | A (90%≤A≤100%) | –
7 | CO/C=C(/C(=O)N1CCC(c2nc(C3=NOC(c4c(F)cccc4F)C3)cs2)CC1)c1ccccc1 (centres unmarked) [Compound I-12] | – | D (45%≤D<60%) | B (75%≤B<90%) | –
8 | C=CC(=O)N1CCC(c2nc(C3=NOC(c4c(F)cccc4F)C3)cs2)CC1 (centres unmarked) [Compound I-16] | D (45%≤D<60%) | C (60%≤C<75%) | B (75%≤B<90%) | –
9 | CCCC(C(=O)N1CCC(c2nc(C3=NOC(c4c(F)cccc4F)C3)cs2)CC1)C(OC)OC (centres unmarked) [II-8] | D (45%≤D<60%) | C (60%≤C<75%) | A (90%≤A≤100%) | –
10 | COc1ccc(C(=CC(=O)N2CCOCC2)c2ccc(Cl)cc2)cc1OC [dimethomorph, reference compound] | – | – | – | Control effect [1]: C (60%≤C<75%); Control effect [2]: B (75%≤B<90%); Control effect [3]: A (90%≤A≤100%); Control effect [4]: A (90%≤A≤100%)
11 | CO/C=C(\Cl)C(=O)N1CCC(c2nc(C3=NOC(c4c(F)cccc4F)C3)cs2)CC1 (centres unmarked) [Compound I-3] | A (90%≤A≤100%) | A (90%≤A≤100%) | A (90%≤A≤100%) | –
12 | CO/C=C(/C(=O)N1CCC(c2nc(C3=NOC(c4c(F)cccc4F)C3)cs2)CC1)c1ccccc1C (centres unmarked) [Compound I-11] | – | – | C (60%≤C<75%) | –
13 | CO/N=C(/C(=O)N1CCC(c2nc(C3=NOC(c4c(F)cccc4F)C3)cs2)CC1)c1ccccc1C (centres unmarked) [Compound I-19] | A (90%≤A≤100%) | A (90%≤A≤100%) | A (90%≤A≤100%) | Control effect [2]: B (75%≤B<90%); Control effect [3]: A (90%≤A≤100%); Control effect [4]: A (90%≤A≤100%)
14 | CO/N=C(\C)C(=O)N1CCC(c2nc(C3=NOC(c4c(F)cccc4F)C3)cs2)CC1 (centres unmarked) [Compound I-23] | D (45%≤D<60%) | B (75%≤B<90%) | B (75%≤B<90%) | –
15 | CC1COC(C)(CC(=O)N2CCC(c3nc(C4=NOC(c5c(F)cccc5F)C4)cs3)CC2)O1 (centres unmarked) [II-12] | – | D (45%≤D<60%) | A (90%≤A≤100%) | –
16 | COC(CC(=O)N1CCC(c2nc(C3=NOC(c4c(F)cccc4F)C3)cs2)CC1)OC (centres unmarked) [II-1] | A (90%≤A≤100%) | A (90%≤A≤100%) | A (90%≤A≤100%) | –
17 | CO/C=C(\Br)C(=O)N1CCC(c2nc(C3=NOC(c4c(F)cccc4F)C3)cs2)CC1 (centres unmarked) [Compound I-4] | B (75%≤B<90%) | A (90%≤A≤100%) | A (90%≤A≤100%) | –
18 | CCOC(CC(=O)N1CCC(c2nc(C3=NOC(c4c(F)cccc4F)C3)cs2)CC1)OCC(F)(F)F (centres unmarked) [II-19] | A (90%≤A≤100%) | A (90%≤A≤100%) | A (90%≤A≤100%) | Control effect (0.005 mg/L, re-screening, Table 2): B (75%≤B<90%); Control effect [1]: A (90%≤A≤100%); efficacy compared with dimethomorph and cyazofamid (0.078 mg/L, in words): superior to that of dimethomorph and cyazofamid; efficacy compared with oxathiapiprolin (0.078 mg/L, in words): equivalent to that of oxathiapiprolin at the same concentration; Control effect (0.078 mg/L, re-screening): ≥ 90%; Control effect [2]: A (90%≤A≤100%); Control effect [3]: A (90%≤A≤100%); Control effect (0.625 mg/L, Table 3): A (90% ≤ A ≤ 100%); Control effect [4]: A (90%≤A≤100%); Control effect (2.5 mg/L, Table 3): A (90% ≤ A ≤ 100%); Control effect (10 mg/L, Table 3): A (90% ≤ A ≤ 100%); bactericidal activity (re-screening, in words): excellent bactericidal activity
19 | CO/C=C/C(=O)N1CCC(c2nc(C3=NOC(c4c(F)cccc4F)C3)cs2)CC1 (centres unmarked) [Compound I-1] | A (90%≤A≤100%) | A (90%≤A≤100%) | A (90%≤A≤100%) | –
20 | O=C(CC1OCCCO1)N1CCC(c2nc(C3=NOC(c4c(F)cccc4F)C3)cs2)CC1 (centres unmarked) [II-21] | D (45%≤D<60%) | B (75%≤B<90%) | A (90%≤A≤100%) | –
